A short description of data set [1]: Inhibition of DENV2 NS2B-NS3 protease using Boc-Gly-Lys-Arg-AMC as substrate incubated for 30 mins by fluorescence assay. Also on record: species or system dengue virus type 2.
Data set [2] in a line: Inhibition of DENV2 TSV01 NS2B-NS3 protease using BOC-GRR-AMC as substrate incubated for 30 mins by spectrofluorometeric assay. Also noted: species or system dengue virus type 2.
Data set [3] in a line: Selectivity index, ratio of CC50 for cytotoxicity against African green monkey Vero cells to EC50 for antiviral activity against DENV2 New Guinea C infected in African green monkey Vero cells. In kind it is toxicity, cell-based. As to conditions: read-out: Ratio CC50/EC50.
A short description of data set [4]: Selectivity index, ratio of CC50 for cytotoxicity against African green monkey Vero cells to EC50 for antiviral activity against DENV4 P11-08 infected in African green monkey Vero cells. Type of data set: toxicity, cell-based. As to conditions: read-out: Ratio CC50/EC50.
A short description of data set [5]: Selectivity index, ratio of CC50 for cytotoxicity against African green monkey Vero cells to EC50 for antiviral activity against DENV1 P03-08 infected in African green monkey Vero cells. Type of data set: toxicity, cell-based. The settings on record: read-out: Ratio CC50/EC50.
Data set [6] is described as follows: Selectivity index, ratio of CC50 for cytotoxicity against African green monkey Vero cells to EC50 for antiviral activity against DENV3 P12-08 infected in African green monkey Vero cells. Type of data set: toxicity, cell-based. As to conditions: read-out: Ratio CC50/EC50.
Data set [7] is described as follows: Inhibition of DENV1 N-terminally hexa-His tagged NS2B (48 to 95 residues) -NS3 (1 to 184 residues) protease expressed in Escherichia coli XL1 Blue using QXL570-Phe-Ala-Ser-Gly-Lys-Arg-Ser-Gln-Ile-Gly-Leu-Lys(5-TAMRA)-NH2 as substrate and measured for 15 mins by FRET assay. Also noted: species or system dengue virus type 1.
Data set [8] is described as follows: Inhibition of DENV3 N-terminally hexa-His tagged NS2B (48 to 95 residues) -NS3 (1 to 184 residues) protease expressed in Escherichia coli XL1 Blue using QXL570-Phe-Ala-Ser-Gly-Lys-Arg-Ser-Gln-Ile-Gly-Leu-Lys(5-TAMRA)-NH2 as substrate and measured for 15 mins by FRET assay. Also on record: species or system dengue virus type 3.
The nature of data set [9]: Inhibition of DENV4 N-terminally hexa-His tagged NS2B (48 to 95 residues) -NS3 (1 to 184 residues) protease expressed in Escherichia coli XL1 Blue using QXL570-Phe-Ala-Ser-Gly-Lys-Arg-Ser-Gln-Ile-Gly-Leu-Lys(5-TAMRA)-NH2 as substrate and measured for 15 mins by FRET assay. Also on record: species or system dengue virus type 4.
The nature of data set [10]: Inhibition of DENV2 N-terminally hexa-His tagged NS2B (48 to 95 residues) -NS3 (1 to 184 residues) protease expressed in Escherichia coli XL1 Blue using QXL570-Phe-Ala-Ser-Gly-Lys-Arg-Ser-Gln-Ile-Gly-Leu-Lys(5-TAMRA)-NH2 as substrate and measured for 15 mins by FRET assay. Also on record: species or system dengue virus type 2.
Data set [11] in a line: Inhibition of DENV2 recombinant NS2B-NS3 protease expressed in Escherichia coli JM109 assessed as inhibition constant using acetyl-TTSTRR-para-nitroaniline as substrate preincubated for 10 mins followed by substrate addition measured after 120 mins by spectrophotometric analysis. Also noted: species or system dengue virus type 2.
Data set [12] is described as follows: Inhibition of DENV2 NS2B-NS3 protease expressed in Escherichia coli BL21 (DE3) using Bz-Nle-Lys-Arg-Arg-AMC as substrate preincubated for 30 mins followed by substrate addition by fluorescence plate reader analysis. Also on record: species or system dengue virus type 2.
The nature of data set [13]: Inhibition of DENV4 NS2B-NS3 protease expressed in Escherichia coli BL21 (DE3) using Bz-Nle-Lys-Arg-Arg-AMC as substrate preincubated for 30 mins followed by substrate addition by fluorescence plate reader analysis. Also noted: species or system dengue virus type 4.
Data set [14] can be described thus: Inhibition of DENV1 NS2B-NS3 protease expressed in Escherichia coli BL21 (DE3) using Bz-Nle-Lys-Arg-Arg-AMC as substrate preincubated for 30 mins followed by substrate addition by fluorescence plate reader analysis. Also noted: species or system dengue virus type 1.
Data set [15] is described as follows: Inhibition of DENV3 NS2B-NS3 protease expressed in Escherichia coli BL21 (DE3) using Bz-Nle-Lys-Arg-Arg-AMC as substrate preincubated for 30 mins followed by substrate addition by fluorescence plate reader analysis. Also on record: species or system dengue virus type 3.
A short description of data set [16]: Inhibition of DENV2 NS2B-NS3 protease using Bz-Nle-Lys-Arg-Arg-AMC as substrate preincubated for 15 mins followed by substrate addition by fluorescence assay. Also on record: species or system dengue virus type 2.
Data set [17] in a line: Inhibition of DENV2 N-terminally hexa-His tagged NS2B (49 to 92 residues) -NS3 (1 to 184 residues) protease using Ac-TTSTRR-pNA as substrate preincubated for 10 mins followed by substrate addition and measured after 120 mins by HTS assay. Also on record: species or system dengue virus type 2.
Another data set concerns dengue virus type 2. The data set can be described thus: Antiviral activity against DENV2 infected in Golden hamster BHK-21 cells assessed as reduction in viral titer incubated for 72 hrs by plaque-forming assay. The settings on record: BHK-21, 72 h. Type of data set: functional, organism-based.
The nature of data set [18]: Inhibition of DENV4 recombinant NS2B-NS3 protease expressed in Escherichia coli using Abz-RRRRSAG-nY-NH2 as substrate preincubated for 20 mins at 37 degC followed by substrate addition measured after 60 mins by fluorescence spectrophotometric analysis. Also on record: species or system dengue virus type 4.
Data set [19] can be described thus: Inhibition of DENV2 recombinant NS2B-NS3 protease expressed in Escherichia coli using Abz-RRRRSAG-nY-NH2 as substrate preincubated for 20 mins at 37 degC followed by substrate addition measured after 60 mins by fluorescence spectrophotometric analysis. Also noted: species or system dengue virus type 2.
The nature of data set [20]: Inhibition of DENV3 recombinant NS2B-NS3 protease expressed in Escherichia coli using Abz-RRRRSAG-nY-NH2 as substrate preincubated for 20 mins at 37 degC followed by substrate addition measured after 60 mins by fluorescence spectrophotometric analysis. Also on record: species or system dengue virus type 3.
Data set [21] can be described thus: Inhibition of DENV1 recombinant NS2B-NS3 protease expressed in Escherichia coli using Abz-RRRRSAG-nY-NH2 as substrate preincubated for 20 mins at 37 degC followed by substrate addition measured after 60 mins by fluorescence spectrophotometric analysis. Also on record: species or system dengue virus type 1.

Molecules are shown by their SMILES. pEC50, pIC50, pKi: −log10 of the molar value. Residues, ends and D or L forms follow the SMILES beside them.

For orientation: pKi means −log10 of the Ki, conventionally taken in molar units. On to `Cc1cc(=O)cc2oc3cc(N)c(-c4c(C)cc(O)cc4O)c(C)c3nc1-2`, for which the negative-log Ki (pKi) in data set [1] is 4.46.
In the case of `O=C1c2c(O)ccc([N+](=O)[O-])c2C(=O)c2c([N+](=O)[O-])ccc(O)c21`, the negative-log Ki (pKi) was 5.38 in data set [1] and 3.36 in data set [2].
Regarding `Cc1ccc(S(=O)(=O)Nc2cc(SCC(=O)O)c(O)c3ccccc23)cc1[N+](=O)[O-]`, the selectivity ratio in data set [3] came to 68.6; in [4], 90.8; in data set [5], 69.3; in data set [6], 27.7.
The term pIC50 denotes the IC50 on a negative log10 scale, so that one unit is a factor of ten. `N=C(N)Nc1ccc(O[C@H]2C[C@@H](Oc3ccc(NC(=N)N)cc3NC(=N)N)[C@H](NC(=N)N)C[C@@H]2NC(=N)N)c(NC(=N)N)c1`: the pIC50 in data set [7] is 5.52; in data set [8], 5.30; in data set [9], 4.96; in data set [10], 5.30. Further, the pKi in data set [11] is 4.81.
Consider `O=C(Nc1nc2cc(O)c(O)cc2s1)c1ccccc1Oc1ccc2cc(O)ccc2c1`, for which the pIC50 is 5.64 in data set [12], 5.70 in data set [13], 5.70 in [14] and 5.80 in data set [15].
Consider `CCc1ccc(NS(=O)(=O)c2ccc(N3C(=O)c4ccccc4C3=O)cc2)cc1`, for which, in data set [16], the negative logarithm of the IC50 (pIC50) was 4.32.
As usually defined, the pEC50 is the EC50 on a negative log10 scale, so that one unit is a factor of ten. Compound `c1ccc(-c2ccc(Nc3nnc(Nc4ccc(C5=NCCN5)cc4)c4ccccc34)cc2)cc1` showed a pIC50 in data set [17] of 4.65. Besides, in the data set on dengue virus type 2, the pEC50 was 6.64.
Turning to `NC(=O)[C@H](Cc1c[nH]c2ccccc12)NC(=O)[C@H](CS)NC(=O)[C@H](Cc1ccc(O)cc1)NC(=O)[C@@H](N)Cc1c[nH]c2ccccc12` (H-WYCW-NH2), the negative-log Ki (pKi) is 4.95 in [18], 5.32 in data set [19], 4.61 in data set [20] and 5.38 in data set [21].

The record behind these values is ChEMBL document CHEMBL5257026, “Progress and prospects on DENV protease inhibitors” (Eur J Med Chem, 2016).
